≈ marks a conversion by molar mass, not a printed value.
Legend:
[1] = tested on: H1 N1 influenza virus strain A/WSN/33; test: microbe, parasite or virus in culture; assay type: cell-based; conditions: 36 h, read-out: Influenza replication IC50
[2] = tested on: A549 human lung carcinoma cells; test: Cell-based EC50 determination, A549 cells (CellTiter-Glo cell viability); conditions: A549, 24 h, read-out: A549 EC50 24h
Protocol: A549 human lung carcinoma cells were cultured in RPMI 1640 medium (Sigma) supplemented with 10% fetal bovine serum (Sigma) and Antibiotic-Antimycotic (Sigma) in tissue culture flasks at 37°C in a humidified 5% CO2 atmosphere. Cells were routinely assayed for mycoplasma contamination.
Two thousand cells were plated in 384-well tissue culture plates, and treated after 24 hours with a 10-point dilution series of the compounds (1.5 nM-30 uM), using the vehicle, DMSO as control. Cells were incubated for 24 hours after which the relative cell density was determined by CellTiter-Glo Luminescent Cell Viability Assay (Promega). This method determines the number of metabolically active cells in the culture based on quantitation of the ATP present. The luminescent signal was measured with an Analyst GT multimode reader (Molecular Devices). […]

[3] = tested on: HepG2 hepatoblastomaderived cell line; test: In vitro growth inhibition, HepG2 (CellTiter-Glo); assay type: cell-based; conditions: Homo sapiens, 72 hours incubation
[4] = tested on: HCT-116 human colon carcinoma cell line; test: In vitro growth inhibition of colon carcinoma cells, HCT-116 (CellTiter-Glo); assay type: cell-based; conditions: 72 hours incubation, read-out: HCT116 EC50
human Ack1 kinase = human Ack1 kinase (Homo sapiens, UniProt Q07912); test: In vitro Ack1 assay (TranScreener ADP2 FP, generation of ADP); assay type: biochemical; conditions: 12.5 uM compound; 3.5 µM ATP; read-out: Ack1 inh% @12.5 uM
Chain of human Ack1 kinase (Q07912 whole entry): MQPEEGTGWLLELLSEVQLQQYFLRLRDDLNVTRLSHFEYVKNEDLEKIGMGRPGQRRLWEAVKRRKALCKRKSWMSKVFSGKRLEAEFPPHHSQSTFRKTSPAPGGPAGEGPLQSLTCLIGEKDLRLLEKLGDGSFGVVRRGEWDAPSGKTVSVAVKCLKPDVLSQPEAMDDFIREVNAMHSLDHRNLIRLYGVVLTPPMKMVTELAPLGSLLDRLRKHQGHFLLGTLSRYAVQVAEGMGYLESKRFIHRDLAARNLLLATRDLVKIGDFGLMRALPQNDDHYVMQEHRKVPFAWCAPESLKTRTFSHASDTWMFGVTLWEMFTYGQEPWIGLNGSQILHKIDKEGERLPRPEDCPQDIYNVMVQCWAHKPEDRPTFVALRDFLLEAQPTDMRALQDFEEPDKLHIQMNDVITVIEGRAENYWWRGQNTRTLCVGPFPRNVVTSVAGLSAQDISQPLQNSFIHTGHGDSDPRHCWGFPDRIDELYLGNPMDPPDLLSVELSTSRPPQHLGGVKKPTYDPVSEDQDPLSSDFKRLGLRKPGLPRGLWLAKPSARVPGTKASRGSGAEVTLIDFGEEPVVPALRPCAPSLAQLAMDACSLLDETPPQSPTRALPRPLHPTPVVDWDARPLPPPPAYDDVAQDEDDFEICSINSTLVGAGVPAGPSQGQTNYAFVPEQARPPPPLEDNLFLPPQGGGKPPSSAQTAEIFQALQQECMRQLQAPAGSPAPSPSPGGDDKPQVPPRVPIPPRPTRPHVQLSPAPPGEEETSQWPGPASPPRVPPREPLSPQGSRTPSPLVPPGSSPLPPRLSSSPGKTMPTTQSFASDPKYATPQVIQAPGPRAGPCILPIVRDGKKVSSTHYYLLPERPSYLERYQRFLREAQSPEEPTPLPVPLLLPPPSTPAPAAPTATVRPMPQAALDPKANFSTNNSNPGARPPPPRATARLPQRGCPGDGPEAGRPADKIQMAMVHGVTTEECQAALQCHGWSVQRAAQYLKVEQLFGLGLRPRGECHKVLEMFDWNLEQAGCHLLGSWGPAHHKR
Protocol: The activity of the compounds described in the present invention can be determined by the following kinase assay, which measures the generation of ADP by human Ack1 kinase by fluorescent polarization using a commercially available TranScreener ADP2 FP Assay Kit (BellBrook Labs).
Ack1 kinase assays were performed in low protein binding 384-well plates (Corning). Test compounds were diluted in 100% DMSO to 5 mM stock concentration and then further dilutions were made in H2O or 100% DMSO to desirable concentrations.
Each reaction consisted of 5 nM enzyme: Ack1 kinase, Poly Glu-Tyr (4:1) (Sigma), 3.5 µM ATP and kinase buffer: 20 mM HEPES pH7.5, 1 mM DTT, 2 mM MgCl2, 0.4 mM MnCl2, 0.01 V/V% Tween20 (all reagents from Sigma-Aldrich)
For each reaction, 4 or 6 µl containing Poly Glu-Tyr (4:1), ATP and kinase buffer were combined with 2 µl diluted compound in H2O or 0.02 µl compound in 100% DMSO. The kinase reaction was started by the addition of 2 µl diluted enzyme. The reaction was allowed to run for 1 hour at room temperature. The reaction was stopped by addition of 8 µl ADP detection mixture (1 x) (1 x Detection buffer + 4.78 µg/ml ADP2 Ab + 4 nM ADP Alexa633 Tracer). After an additional hour, fluorescent polarization (Ex: 630-35 nm, Em: 680-30 nm, Dich: 650 nm) was measured using an Analyst GT (Molecular Devices).

human Clk1 kinase = target: T1, human Clk1 kinase (Homo sapiens, UniProt P49759); test: In vitro Clk1 assay (IMAP fluorescence polarization); assay type: biochemical; conditions: 0.45 µM ATP
T1 construct: Each reaction consisted of 4 nM enzyme: Clk1 kinase domain
T1 sequence (P49759 161-477 limits assumed): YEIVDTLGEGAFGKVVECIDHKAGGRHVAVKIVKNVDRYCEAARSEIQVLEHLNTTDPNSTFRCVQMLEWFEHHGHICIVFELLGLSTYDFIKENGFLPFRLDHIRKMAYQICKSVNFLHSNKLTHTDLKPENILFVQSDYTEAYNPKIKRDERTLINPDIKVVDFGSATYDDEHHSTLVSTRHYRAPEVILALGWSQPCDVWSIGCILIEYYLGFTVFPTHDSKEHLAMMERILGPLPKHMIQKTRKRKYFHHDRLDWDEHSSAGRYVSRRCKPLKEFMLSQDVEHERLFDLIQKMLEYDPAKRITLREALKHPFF
Protocol: The activity of the compounds described in the present invention can be determined by the following kinase assay, which measures the phosphorylation of a fluorescently-labeled peptide by human Clk1 kinase by fluorescent polarization using a commercially available IMAP Screening Express Assay Kit (Molecular Devices).
Clk1 kinase assays were performed in low protein binding 384-well plates (Corning). Test compounds were diluted in 100% DMSO to 5 mM stock concentration and then further dilutions were made in H2O or 100% DMSO to desirable concentrations.
Each reaction consisted of 4 nM enzyme: Clk1 kinase domain, 400 nM TAMRA-AFRREWSPGKEAKK-NH2 (Genecust), 0.45 µM ATP (Sigma) and kinase buffer: 20 mM TRIS pH 8, 1 mM DTT, 0.4 mM MgCl2, 0.4 mM MnCl2, 0.01 V/V% Tween20 (all reagents from Sigma-Aldrich)
(§1) For each reaction, 4 or 6 µl containing TAMRA-peptide, ATP and kinase buffer were combined with 2 µl diluted compound in H2O or 0.02 µl compound in 100% DMSO. The kinase reaction was started by the addition of 2 µl diluted enzyme. The reaction was allowed to run for 1 hour at room temperature. The reaction was stopped by adding 15 µl IMAP beads (1:600 beads in progressive (80 % buffer A, 20% buffer B) 1x buffer). After an additional hour, fluorescent polarization (Ex: 550-10 nm, Em: 590-10 nm, Dich: 561 nm) was measured using an Analyst GT (Molecular Devices).

[5] = tested on: HKE3 human colon carcinoma cell line; test: In vitro growth inhibition of colon carcinoma cells, HKE3 (CellTiter-Glo); assay type: cell-based; conditions: 72 hours incubation
human Akt1 kinase = human Akt1 kinase (Homo sapiens, UniProt P31749); test: In vitro Akt1 assay (IMAP fluorescence polarization, phosphorylation of TAMRA-peptide); assay type: biochemical; conditions: 40 µM ATP; for inhibition at 12.5 µM: 12.5 uM compound, read-out: Akt1 inh% @12.5 uM
Chain of human Akt1 kinase (P31749 whole entry): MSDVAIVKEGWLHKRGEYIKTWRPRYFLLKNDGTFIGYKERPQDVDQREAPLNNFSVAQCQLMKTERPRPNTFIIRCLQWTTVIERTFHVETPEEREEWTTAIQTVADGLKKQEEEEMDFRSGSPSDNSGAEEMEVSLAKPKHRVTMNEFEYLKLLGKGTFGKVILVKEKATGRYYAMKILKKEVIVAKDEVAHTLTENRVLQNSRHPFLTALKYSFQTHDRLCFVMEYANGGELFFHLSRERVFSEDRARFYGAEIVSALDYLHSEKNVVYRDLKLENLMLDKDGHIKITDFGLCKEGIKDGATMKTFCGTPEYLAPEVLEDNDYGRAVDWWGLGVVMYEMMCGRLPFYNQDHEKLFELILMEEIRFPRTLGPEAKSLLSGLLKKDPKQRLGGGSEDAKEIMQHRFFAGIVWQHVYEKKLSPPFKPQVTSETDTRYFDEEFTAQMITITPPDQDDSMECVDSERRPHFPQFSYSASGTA
Protocol: The inhibition of Akt1 by the compounds described in the present invention were determined measuring the phosphorylation of a fluorescently-labeled peptide (TAMRA-peptide) by human Akt1 kinase by fluorescent polarization using a commercially available IMAP Screening Express Assay Kit (Molecular Devices).
Akt1 kinase assays were performed in low protein binding 384-well plates (Corning). Test compounds were diluted in 100% DMSO to 5 mM stock concentration and then further dilutions were made in H2O or 100% DMSO to desirable concentrations.
Each reaction consisted of 5 nM enzyme: Akt1 kinase, 400 nM TAMRA-peptide (5-TAMRA-GRTGRRNSI-COOH; Genecust), 40 µM ATP and kinase buffer: 20 mM MES pH6, 1 mM DTT, 10 mM MgCl2, 2 mM MnCl2, 0.01 V/V% TritonX (all reagents from Sigma-Aldrich).
as §1, with “(1:400” for “(1:600”, “(75%” for “(80 %”, “25%” for “20%”

physchem = assay type: physicochemical; conditions: kinetic from dmso stock
Protocol: Samples were diluted in DMSO (control), phosphate buffer pH = 7.4 and pH = 2.0, from 5mM stock solutions (solved in DMSO), with a 120 µM final concentration. The samples were incubated for 24 hours at room temperature followed by 30 minutes centrifugation at 3700 rpm. 40 µl of the supernatants were injected into HPLC (Waters 2795 Alliance HPLC equipped with Waters 996 PDA Detector (HPLC column: Waters XBridge, RP C18, 3.5 µm, 4.6 mm x 50 mm; gradient MeCN/H2O, containing 0.1% HCOOH: 5% MeCN (0.5 min), 5% to 95% MeCN (5 min), 95% MeCN (0.5 min); flow rate: 2.0 ml/min)) and the AUC values (measured on sample specific wavelength) of the buffered samples were divided by the AUC values (same wavelength as buffered samples') of the DMSO control samples. Table 3: Solubility in water for several compounds according to general formula (I)

SMILES | IC50 [1] | EC50 [2] | EC50 [3] | EC50 [4] | inhibition at 12.5 µM (human Ack1 kinase) | IC50 (human Clk1 kinase) | EC50 [5] | inhibition at 12.5 µM (human Akt1 kinase) | IC50 (human Akt1 kinase) | solubility at 24 h (physchem; pH 2, aqueous buffer) | solubility at 24 h (physchem; pH 7.4, aqueous buffer)
C[C@@H](NC(=O)c1ccc2c(c1)/C(=C(/Nc1cccc(CN3CCCCC3)c1)c1ccccc1)C(=O)N2)c1ccccc1 [Compound 13, (3Z)-2-oxo-N-[(1R)-1-phenylethyl]-3-(phenyl{[3-(piperidin-1-ylmethyl)phenyl]amino}methylene)indoline-5-carboxamide] | 160 nM | 9340 nM | 5660 nM | 170 nM | 13.7% | 30 nM | 140 nM | 60.6% | 5940 nM | 110 to 120 µM (≈ 61.2 to 66.8 µg/mL) | < 10 µM
CC[C@@H](NC(=O)c1ccc2c(c1)/C(=C(/Nc1ccc(CN3CCCCC3)cc1)c1ccccc1)C(=O)N2)c1ccccc1 [Compound 18, (3Z)-2-oxo-3-(phenyl{[4-(piperidin-1-ylmethyl)phenyl]amino}methylene)-N-[(1R)-1-phenylpropyl]indoline-5-carboxamide] | < 10 nM | > 30000 nM | 310 nM | 10 nM | 85.9% | 30 nM | 4 nM | 92.1% | 570 nM | 110 to 120 µM (≈ 62.8 to 68.5 µg/mL) | < 10 µM
O=C1Nc2ccc(C(=O)NCc3ccccc3)cc2/C1=C(/Nc1ccc(CN2CCCCC2)cc1)c1ccccc1 [Compound 20, (3Z)-N-benzyl-2-oxo-3-(phenyl{[4-(piperidin-1-ylmethyl)phenyl]amino}methylene)indoline-5-carboxamide] | < 10 nM | > 30000 nM | 790 nM | 20 nM | 72.7% | 10 nM | 10 nM | 91.6% | 910 nM | 110 to 120 µM (≈ 59.7 to 65.1 µg/mL) | < 10 µM
COc1ccc([C@@H](C)NC(=O)c2ccc3c(c2)/C(=C(/Nc2ccc(CN4CCCCC4)cc2)c2ccccc2)C(=O)N3)cc1 [Compound 21, (3Z)-N-[(1R)-1-(4-methoxyphenyl)ethyl]-2-oxo-3-(phenyl{[4-(piperidin-1-ylmethyl)phenyl]amino}methylene)indoline-5-carboxamide] | 1480 nM | > 30000 nM | 5300 nM | 410 nM | 87% | 20 nM | 320 nM | 78.2% | 1700 nM | 100 to 110 µM (≈ 58.7 to 64.5 µg/mL) | < 10 µM
COc1cccc([C@@H](C)NC(=O)c2ccc3c(c2)/C(=C(/Nc2ccc(CN4CCCCC4)cc2)c2ccccc2)C(=O)N3)c1 [Compound 22, (3Z)-N-[(1R)-1-(3-methoxyphenyl)ethyl]-2-oxo-3-(phenyl{[4-(piperidin-1-ylmethyl)phenyl]amino}methylene)indoline-5-carboxamide] | < 10 nM | > 30000 nM | 1060 nM | 40 nM | 83.8% | 20 nM | 20 nM | 88% | 110 nM | 110 to 120 µM (≈ 64.5 to 70.4 µg/mL) | < 10 µM
C[C@@H](NC(=O)c1ccc2c(c1)/C(=C(/Nc1ccc(CN3CCCCC3)cc1)c1ccccc1)C(=O)N2)c1ccc(F)cc1 [Compound 23, (3Z)-N-[(1R)-1-(4-fluorophenyl)ethyl]-2-oxo-3-(phenyl{[4-(piperidin-1-ylmethyl)phenyl]amino}methylene)indoline-5-carboxamide] | < 10 nM | 15300 nM | 920 nM | 40 nM | 91.1% | 20 nM | 40 nM | 92.1% | 180 nM | 110 to 120 µM (≈ 63.2 to 69 µg/mL) | < 10 µM
COc1cccc([C@@H](C)NC(=O)c2ccc3c(c2)/C(=C(/Nc2cccc(CN4CCCCC4)c2)c2ccccc2)C(=O)N3)c1 [Compound 24, (3Z)-N-[(1R)-1-(3-methoxyphenyl)ethyl]-2-oxo-3-(phenyl{[3-(piperidin-1-ylmethyl)phenyl]amino}methylene)indoline-5-carboxamide] | 420 nM | 11800 nM | 6090 nM | 380 nM | 13.7% | 80 nM | 290 nM | 76.8% | 880 nM | 110 to 120 µM (≈ 64.5 to 70.4 µg/mL) | < 10 µM
Cc1ccc([C@@H](C)NC(=O)c2ccc3c(c2)/C(=C(/Nc2cccc(CN4CCCCC4)c2)c2ccccc2)C(=O)N3)cc1 [Compound 27, (3Z)-N-[(1R)-1-(4-methylphenyl)ethyl]-2-oxo-3-(phenyl{[3-(piperidin-1-ylmethyl)phenyl]amino}methylene)indoline-5-carboxamide] | 2460 nM | 25400 nM | 5240 nM | 1410 nM | 9.9% | 200 nM | 1320 nM | 81.3% | 2960 nM | 110 to 120 µM (≈ 62.8 to 68.5 µg/mL) | < 10 µM
